What was measured:
[1] = tested on: LPS-induced macrophage activation; experiment: PGE2-mediated protection against LPS-induced macrophage activation; assay type: cell-based
[2] = tested on: AngII/PCSK9-induced AAA mouse model; experiment: Ang II plus hypercholesterolemia (AngII/PCSK9) induced AAA mouse model; assay type: in vivo
Method: FIG. 1. Characterization of the protective effect of NO2—OA (10-nitro-octadec-9-enoic acid) in the Ang II plus hypercholesterolemia-induced AAA mouse model. (A) Schematic illustration of the in vivo experimental design. Ten week old male C57BL/6 mice were IP injected with AAV carrying PCSK9 gain-of-function (D377Y) mutation and fed a western diet. After two weeks, each mouse was implanted with a pump delivering AngII at a rate of 1,500 ng/kg/min plus an additional pump containing either PEG-400 (vehicle), OA or NO2—OA with a delivery rate of 5 mg/kg/day (n=25 to 30 per group) and carried to the endpoint for another four weeks. Mice with ruptured aorta within the first week or with total plasma cholesterol less than 250 mg/dl were excluded from the study. (B) Representative morphological differences of the abdominal aorta. (C) AAA incidence calculated by using 1.2 mm as the cutoff diameter indicated by the dotted line in (D). (D) Average maximal diameter of the suprarenal aorta region. (E) Representative H&E and VVG staining of the paraffin-embedded suprarenal aortic cross-sections (5 μm). (F) Grade of elastic fiber degradation in the aorta (1 to 4). A 2×3 Fisher's exact test followed by posthoc test was performed for (C). For (D) and (F), the Kruskal-Wallis test followed by Dunn's multiple comparisons was performed. Continuous data are presented as mean±SEM. Scale bar=20 μm for (E). A p<0.05 for both the main test and post hoc test was considered statistically significant.
Ten weeks old male C57BL/6J mice were purchased from The Jackson Laboratory. The murine AAA model induced by AngII/PCSK9 gain-of-function mutation is well-established. After acclimation for 1 week, mice were fed a western diet (TD.88137, Envigo) and intraperitoneally injected with 2×1011 genomic copies of AAV-PCSK9.D377Y (AAV serotype 8, Penn Vector Core). Two weeks later, each mouse was subcutaneously implanted with two osmotic pumps (Model #2004, Alzet). One was loaded with AngII (#H-1706, Bachem), releasing at a rate of 1,500ng/kg/min, while the other one was loaded with PEG-400, OA or NO2—OA at a delivery rate of 5 mg/kg/day for OA or NO2—OA. After 4-weeks infusion, mice were euthanized and the maximal outer diameter of the suprarenal aorta was assessed with a digital caliper by a third person blinded to the treatment. Suprarenal aortas with a maximal diameter ≥50% larger than standard size (≥1.2 mm) were considered as abdominal aortic aneurysms. Mice dead within the first week of pump implantation or with a serum total cholesterol level less than 250 mg/dL were excluded from the study. All animal procedures were performed following the protocols approved by the Institutional Animal Care & Use Committee (IACUC) at the University of Michigan.
H&E and Verhoeff Van Gieson staining of paraffin or frozen sections of mouse suprarenal abdominal aorta were performed by the In-Vivo Animal Core at the University of Michigan. Elastin degradation grade was calculated as we previously reported.

[3] = tested on: circulating MCP1 and IL6; experiment: Circulating cytokine ELISA in AAA model mice; assay type: in vivo, mouse
Description: FIG. 2. […] (A) Quantification of gene expression levels in the mice suprarenal aorta region by real-time PCR (n=3 to 4). (B, C) Serum cytokines levels measured by ELISA (n=8 to 11). (D) FACS of single cells isolated from the mice suprarenal aorta region. Each sample is the pool of cells from three mice (n=3). (E, F) Quantification of the percentage of CD45+ leukocytes and CD64+, CD11c+M1-like macrophages in total cells from the FACS analysis. Ordinary one-way ANOVA followed by Tukey's test was performed for (A), (E) and (F). For ELISA in (B) and (C), to avoid the effect of the non-detected data point, a non-parametric Kruskal-Wallis test followed by Dunn's multiple comparisons was performed by adding zero to the missing data point. Data presented as mean±SEM. A p<0.05 for both the main test and post hoc test was considered statistically significant.
MCP1, TNFα and IL6 levels in mouse plasma were measured by ELISA performed by the Cancer Center Immunology Core at the University of Michigan.

[4] = tested on: MMP9; experiment: Gelatin zymography in BMDMs, MMP9; assay type: cell-based, mouse; conditions: 2.5 μM, 12 h
Method: FIG. 4. NO2—OA inhibits PGE2-dependent EP4 cAMP downstream signaling. (A) Three parameters nonlinear regression of EP4 global fitting dose-response curve. […] (B) HTRF assay of cAMP-Gs coupled receptor. […] (D) Representative figure of gelatin zymography indicating MMP 2/9 activity. BMDMs were incubated with L-902,688 (100 nM) plus vehicle, OA (2.5 μM) or NO2—OA (2.5 μM) for 12 h, and MMP 2&9 activity was measured by gelatin zymography. For (A) and (B), three or four parameters, global or separate fitting, constraints, and the significance of EC50 were determined in Prism. Data presented as mean±SEM. A p<0.05 was considered statistically significant.
Freshly differentiated BMDMs were cultured in the bone marrow macrophage-differentiation media until 80% confluence. […] Then, the supernatant was collected and centrifuged to remove any residual debris. Measurement of MMP2 and MMP9 activity was performed by running the supernatant (using detergent-free loading buffer) in 1% gelatin gel, followed by staining with Coomassie blue.

[5] = tested on: RAW 264.7 cells; experiment: Boyden chamber transwell migration assay; assay type: cell-based, murine; conditions: in the presence of Ang II; 2.5 μM, 12 hours
Method: HUVECs were seeded in the lower chambers of the Transwells (#CLS3464, Sigma-Aldrich) and cultured up to 80% confluence before treatment with or without AngII (100 nM) for 6 hours in OptiMEM I reduced serum medium (#31985-070, Gibco). RAW 264.7 cells starved with OptiMEM I overnight were seeded (2×10^5 per well) in the upper chambers of the transwells and treated with vehicle (ethanol), OA (2.5 μM) or NO2—OA (2.5 μM) for additional 12 hours. Cells on the upper chamber were then removed by gently scraping with a cotton swab, and the membranes were fixed in 4% PFA for 15 min and stained with 0.1% crystal violet for 15 min at room temperature. Images were acquired by AMG Evos XI Core Imaging System. Quantification of the positively stained area was performed using Image J v1.52s.

CCCCCCCCC(=CCCCCCCCC(=O)O)[N+](=O)[O-] [NO2—OA, 10-nitro-octadec-9-enoic acid]
PGE2-mediated protective effect against LPS-induced macrophage activation (expression of Tnf, Il6, Ccl4) [1]: does not suppress
AAA incidence ([2]; 5 mg/kg/day subcutaneous infusion, after 4 weeks, cutoff diameter 1.2 mm): 28.6%
maximal diameter of the suprarenal aorta region ([2]; 5 mg/kg/day subcutaneous infusion, after 4 weeks, mean±SEM): 1.16±0.09 mm
ECM degradation / elastin fiber degradation ([2]; 5 mg/kg/day, 4 weeks, VVG staining, grade 1 to 4): significantly reduced
protein level of circulating IL6 [3]: significantly decreased
protein level of circulating MCP1 [3]: significantly decreased
PGE2-upregulated MMP9 (gelatin zymography) [4]: significantly diminished
endothelial-dependent macrophage migration [5]: significantly inhibits

From US12728111B2, “Electrophilic compounds and electrophilic prodrugs for treating aneurysm” (University of Pittsburgh—Of the Commonwealth System of …, priority 2020, dated 2026)
